Columns and labels:
Type in all cases: cell-based
A-549, lung cancer = assay: In vitro cytotoxicity, MTT assay, A-549; conditions: A549, 96 h, A-549 human lung cancer cells, 4 days incubation
Protocol: (§1) Three human cancer cell lines (A-549, lung cancer; SK-BR-3, breast cancer; MKN-45, stomach cancer) were tested in MTT assay. These cell lines were grown in RPMI 1640 medium supplemented with penicillin-streptomycin (100 units/mL) and 10% heat-inactivated fetal bovine serum under standard culture condition (20% O2 and 5% CO2, 37° C.). Single-cell suspensions were prepared by trypsinization and pipette disaggregation. The number of cells for each cell line plated in 96-well microtiter plates was determined from the growth curve obtained in MTT assay. Test compounds were diluted from stock solution in DMSO into fresh medium to a 10× concentration. Cells were inoculated into each well in 180 μL of medium and eight different concentrations of 20 μL of test compounds were added to each well. The plates were then incubated for 4 days at 37° C., 5% CO2. After 4 days of culture, 0.1 mg (20 μL of 5 mg/mL) of MTT was added to each well. The plates were then incubated at 37° C. for 4 hours. After the plates were centrifuged at 1,000 rpm for 10 minutes, the supernatant was aspirated. 150 μL of DMSO was added to each well to solubilize formazan crystals. The plates were read immediately at 550 nm on Elisa reader (Dynatech, MR 5000).

SK-BR-3, breast cancer = assay: In vitro cytotoxicity, MTT assay, SK-BR-3; conditions: 96 h, SK-BR-3 human breast cancer cells, 4 days incubation
Protocol: as §1

MKN-45, stomach cancer = assay: In vitro cytotoxicity, MTT assay, MKN-45; conditions: 96 h, MKN-45 human stomach cancer cells, 4 days incubation
Protocol: as §1

Row | SMILES | IC50 (A-549, lung cancer) [µM] | IC50 (SK-BR-3, breast cancer) [µM] | IC50 (MKN-45, stomach cancer) [µM]
1 | O=C(C=Cc1ccc(CNC(=O)c2ccc(N3CCN(Cc4cccnc4)CC3)cc2)cc1)NO [Example 1, N-[4-(2-Hydroxycarbamoylvinyl)benzyl]-4-(4-pyridin-3-ylmethylpiperazin-1-yl)benzamide] | 12 | 3.19 | 38.6
2 | O=C(C=Cc1ccc(CNC(=O)c2ccc(N3CCN(Cc4ccccn4)CC3)cc2)cc1)NO [Example 2, N-[4-(2-Hydroxycarbamoylvinyl)benzyl]-4-(4-pyridin-2-ylmethylpiperazin-1-yl)benzamide] | 1.65 | 0.27 | 2.94
3 | O=C(C=Cc1ccc(CNC(=O)c2ccc(N3CCN(Cc4ccncc4)CC3)cc2)cc1)NO [Example 3, N-[4-(2-Hydroxycarbamoylvinyl)benzyl]-4-(4-pyridin-4-ylmethylpiperazin-1-yl)benzamide] | 3.02 | 1.72 | 56.1
4 | O=C(C=Cc1ccc(CNC(=O)c2ccccn2)cc1)NO [Example 4, N-[4-(2-Hydroxycarbamoylvinyl)benzyl]picolinamide] | 2.23 | 0.87 | 3.64
5 | O=C(C=Cc1ccc(CNC(=O)c2ccc(N3CCCC3)cc2)cc1)NO [Example 5, N-[4-(2-Hydroxycarbamoylvinyl)benzyl]-4-pyrrolidin-1-ylbenzamide] | 0.35 | 0.11 | 0.8
6 | CN(C)c1ccc(C(=O)NCc2ccc(C=CC(=O)NO)cc2)cc1 [Example 6, 4-Dimethylamino-N-[4-(2-hydroxycarbamoylvinyl)benzyl]benzamide] | 0.48 | 0.16 | 0.83
7 | O=C(C=Cc1ccc(CNC(=O)c2cccnc2)cc1)NO [Example 7, N-[4-(2-Hydroxycarbamoylvinyl)benzyl]nicotinamide] | 2.89 | 1.28 | 4.98
8 | O=C(C=Cc1ccc(CNC(=O)OCc2cccnc2)cc1)NO [Example 8, [4-(2-Hydroxycarbamoylvinyl)benzyl]carbamic acid pyridin-3-ylmethyl ester] | 2.61 | 1.12 | 3.34
9 | O=C(C=Cc1ccc(CS(=O)(=O)Nc2cccnc2)cc1)NO [Example 9, N-Hydroxy-3-[4-(pyridin-3-ylsulfamoylmethyl)phenyl]acrylamide] | 37 | 22.9 | 62
10 | O=C(C=Cc1ccc(CS(=O)(=O)c2ccccc2)cc1)NO [Example 10, 3-[4-(Benzenesulfonylmethyl)phenyl]-N-hydroxyacrylamide] | 11.1 | 4.57 | 8.34
